One data set concerns the target USP1/UAF1 enzyme (Homo sapiens, UniProt O94782). The data set can be described thus: USP1/UAF1 deubiquitination assay (ubiquitin-rhodamine 110 substrate). The note with it: read-out: USP1 IC50 (Ub-Rho). Format: biochemical. The essentials:
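Cleavage of 150 nM ubiquitin-rhodamine 110 by 0.05 nM USP1/UAF1 was followed as fluorescence (Ex480/Em540, kinetic, 30 min) in Tris-HCl pH 7.8 buffer with EDTA, BSA, DTT and Tween-20. Compounds, top 10 μM, were preincubated with enzyme 10 min; % inhibition against no-enzyme and DMSO wells gave four-parameter IC50s.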

Data set [1] can be described thus: Liver microsomal metabolic stability, human liver microsomes (HLM). Particulars: for half-life at 1 μM: human, liver microsomes. (Microsomes from liver hold many membrane-bound enzymes, among them those of drug oxidation.)
Data set [2] relates to Ub-PCNA levels in the nucleus of ES2 cells (USP1 activity). Briefly: ES2 Ub-PCNA immunofluorescence (IF) assay. The class given is cell-based. Particulars: ES2 cells, 3 hours, Ub-PCNA immunofluorescence, read-out: USP1 IC50 (Ub-PCNA). The method in brief: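 AC50 derived from percent Ub-PCNA-positive nuclei, positivity set by a 95% cutoff from untreated-well intensities. Readout by imaging immunofluorescence (anti-Ub-PCNA, DAPI nuclear mask) after methanol fixation. Compound exposure: 3 h at 37° C, 0.3% DMSO final, on cells plated overnight.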

Data set [3] in a line: ADME solubility determination in PBS at pH 2.0 and pH 7.4. The class given is physicochemical. The note with it: for solubility at 24 h: phosphate buffered saline, 25 °C, thermodynamic from solid. The method in brief: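 Solubility was read by LC-MS/MS on centrifuged supernatants, calibrated to a known-concentration standard and corrected for dilution. Compound, dried down from 10 mM DMSO stock, was equilibrated 24 h at 25° C with shaking in PBS at pH 2.0 or pH 7.4.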

Data set [4] is described as follows: Liver microsomal metabolic stability, rat liver microsomes (RLM). The note with it: 1 μM compound, 1 mg/mL microsomes, NADPH; for half-life at 1 μM: rat, liver microsomes, t1/2 (min) in RLM.
Where [5] appears, read: pH 2, aqueous buffer, PBS pH 2.0, 25° C., read-out: Solubility at pH 2.0.
The mark [6] stands for this setting: pH 7.4, aqueous buffer, PBS pH 7.4, 25° C., read-out: Solubility at pH 7.4.

SMILES strings stand for the structures. Where two headings read alike, the source gives them in different places. Where only a bound is given, the exact number is not on record here.

Sequence of USP1/UAF1 enzyme (O94782 whole entry): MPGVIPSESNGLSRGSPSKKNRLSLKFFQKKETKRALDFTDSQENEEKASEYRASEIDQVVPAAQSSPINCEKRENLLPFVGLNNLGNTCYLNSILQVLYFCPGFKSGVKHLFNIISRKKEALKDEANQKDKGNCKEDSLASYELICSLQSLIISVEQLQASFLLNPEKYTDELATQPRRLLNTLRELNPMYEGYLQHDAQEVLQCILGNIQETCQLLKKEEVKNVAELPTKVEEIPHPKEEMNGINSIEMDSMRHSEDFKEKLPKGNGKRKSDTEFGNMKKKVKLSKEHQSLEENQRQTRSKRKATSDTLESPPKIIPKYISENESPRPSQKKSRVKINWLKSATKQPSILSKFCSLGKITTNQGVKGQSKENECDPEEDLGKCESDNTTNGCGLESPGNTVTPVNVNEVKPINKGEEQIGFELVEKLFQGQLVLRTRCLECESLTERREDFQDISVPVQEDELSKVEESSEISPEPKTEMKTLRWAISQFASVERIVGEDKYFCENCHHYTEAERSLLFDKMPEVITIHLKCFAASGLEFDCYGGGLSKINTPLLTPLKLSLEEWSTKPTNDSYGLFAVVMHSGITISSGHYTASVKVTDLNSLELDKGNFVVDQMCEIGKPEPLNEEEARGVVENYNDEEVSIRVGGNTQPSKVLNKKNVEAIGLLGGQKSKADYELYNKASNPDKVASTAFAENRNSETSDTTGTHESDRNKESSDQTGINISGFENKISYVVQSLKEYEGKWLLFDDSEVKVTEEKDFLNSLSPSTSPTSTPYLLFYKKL
Sequence of USP1/UAF1 enzyme (Q8TAF3 whole entry partner): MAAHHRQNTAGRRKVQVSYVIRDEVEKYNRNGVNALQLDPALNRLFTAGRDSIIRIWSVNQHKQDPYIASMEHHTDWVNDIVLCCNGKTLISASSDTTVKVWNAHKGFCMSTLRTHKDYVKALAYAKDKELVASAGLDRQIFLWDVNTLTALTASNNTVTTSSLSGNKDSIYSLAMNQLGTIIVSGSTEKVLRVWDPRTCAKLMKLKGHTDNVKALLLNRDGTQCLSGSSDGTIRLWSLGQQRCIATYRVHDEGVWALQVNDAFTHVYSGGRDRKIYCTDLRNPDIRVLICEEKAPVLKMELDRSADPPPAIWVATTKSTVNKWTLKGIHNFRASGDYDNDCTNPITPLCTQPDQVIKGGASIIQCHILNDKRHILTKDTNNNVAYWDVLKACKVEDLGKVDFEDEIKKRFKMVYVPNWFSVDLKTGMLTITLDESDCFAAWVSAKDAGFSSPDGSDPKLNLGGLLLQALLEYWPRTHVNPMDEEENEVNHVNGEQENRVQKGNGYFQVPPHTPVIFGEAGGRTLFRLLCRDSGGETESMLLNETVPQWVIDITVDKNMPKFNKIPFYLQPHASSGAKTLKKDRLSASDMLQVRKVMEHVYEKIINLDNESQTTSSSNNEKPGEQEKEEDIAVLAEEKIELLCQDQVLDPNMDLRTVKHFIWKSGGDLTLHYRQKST

With `Cc1cnn(C(C)C)c1-c1nc2n(n1)CCCN2Cc1ccc(-c2nc(C(F)(F)F)cn2C(C)C)cc1` [Example 222, 4-(4-(1-isopropyl-4-(trifluoromethyl)-1H-imidazol-2-yl)benzyl)-2-(1-isopropyl-4-methyl-1H-pyrazol-5-yl)-4,5,6,7-tetrahydro-[1,2,4]triazolo[1,5-a]pyrimidine], the IC50 on USP1/UAF1 enzyme is under 100 nM; in data set [2] (Homo sapiens, ES-2), under 100 nM. In addition, the half-life at 1 μM in data set [1] and in data set [4] was under 25 min each time. Further, the solubility at 24 h was at least 10 µM in data set [3] (setting [5]) and under 10 µM in data set [3] (setting [6]).
`CC(C)n1ncc(Cl)c1-c1cc2n(n1)CC(C)(O)C(=O)N2Cc1ccc(-c2nc(C(F)(F)F)cn2C)cc1` (stereo not drawn) [Example 232, 2-(4-chloro-1-isopropyl-1H-pyrazol-5-yl)-6-hydroxy-6-methyl-4-(4-(1-methyl-4-(trifluoromethyl)-1H-imidazol-2-yl)benzyl)-6,7-dihydropyrazolo[1,5-α]pyrimidin-5(4H)-one]: the IC50 at USP1/UAF1 enzyme fell in the range of 100 to 500 nM; in data set [2] (Homo sapiens, ES-2) it was 100 to 500 nM. Moreover, the half-life at 1 μM in data set [1] and in data set [4] was over 25 min each time. Also, the solubility at 24 h in data set [3] (setting [5]) and in data set [3] (setting [6]) was under 10 µM each time.
Take `CCn1cc(C(F)(F)F)nc1-c1ccc(CN2C(=O)C(N)Cn3nc(-c4c(Cl)cnn4C(C)C)cc32)cc1` (stereo not drawn) [Example 233, 6-amino-2-(4-chloro-1-isopropyl-1H-pyrazol-5-yl)-4-(4-(1-ethyl-4-(trifluoromethyl)-1H-imidazol-2-yl)benzyl)-6,7-dihydropyrazolo[1,5-α]pyrimidin-5(4H)-one]: the IC50 was under 100 nM on USP1/UAF1 enzyme and 100 to 500 nM in data set [2]. Also, the “t1/2 (min) in HLM” value in data set [1] (human liver microsomes, 1 μM compound, 1 mg/mL microsomes, NADPH) is reported as “++ (“++” indicates 25 minutes greater)”. For the same compound, the “Solubility at pH 2.0 (μM)” value in data set [3] (PBS pH 2.0, 25° C., 24 hours) was “++ (“++” indicates 10 μM or greater)”. Also, in data set [3] (PBS pH 7.4, 25° C., 24 hours), the “Solubility at pH 7.4 (μM)” value is “+ (“+” indicates less than 10 μM)”. The “t1/2 (min) in RLM” value in data set [4] is given as “++ (“++” indicates 25 minutes greater)”.
`CCn1cc(C(F)(F)F)nc1-c1ccc(CN2C(=O)C(N(C)C)Cn3nc(-c4c(Cl)cnn4C(C)C)cc32)cc1` (stereo not drawn) [Example 235, 2-(4-chloro-1-isopropyl-1H-pyrazol-5-yl)-6-(dimethylamino)-4-(4-(1-ethyl-4-(trifluoromethyl)-1H-imidazol-2-yl)benzyl)-6,7-dihydropyrazolo[1,5-α]pyrimidin-5(4H)-one]: the half-maximal inhibitory concentration (IC50) is under 100 nM at USP1/UAF1 enzyme and 100 to 500 nM in data set [2] (Homo sapiens, ES-2). For the same compound, the half-life at 1 μM in data set [1] and in data set [4] was under 25 min each time. Besides, the results for the solubility at 24 h in data set [3] (setting [5]) and in data set [3] (setting [6]) were at least 10 µM and under 10 µM, respectively.
With `CCn1cc(C(F)(F)F)nc1-c1ccc(CN2C(=O)C(NC)Cn3nc(-c4c(Cl)cnn4C(C)C)cc32)cc1` (stereo not drawn) [Example 236, 2-(4-chloro-1-isopropyl-1H-pyrazol-5-yl)-4-(4-(1-ethyl-4-(trifluoromethyl)-1H-imidazol-2-yl)benzyl)-6-(methylamino)-6,7-dihydropyrazolo[1,5-α]pyrimidin-5(4H)-one], the IC50 is 100 to 500 nM at USP1/UAF1 enzyme and over 500 nM in data set [2] (Homo sapiens, ES-2). Further, the half-life at 1 μM in data set [1] and in data set [4] was under 25 min throughout. Further, the solubility at 24 h was at least 10 µM in data set [3] (setting [5]) and under 10 µM in data set [3] (setting [6]).
With `CCn1cc(C(F)(F)F)nc1-c1ccc(NC2CCCn3nc(-c4c(Cl)cnn4C(C)C)cc32)cc1` (stereo not drawn) [Example 237, 2-(4-chloro-1-isopropyl-1H-pyrazol-5-yl)-N-(4-(1-ethyl-4-(trifluoromethyl)-1H-imidazol-2-yl)phenyl)-4,5,6,7-tetrahydropyrazolo[1,5-α]pyridin-4-amine], the IC50 at USP1/UAF1 enzyme was under 100 nM; in data set [2] (Homo sapiens, ES-2) it was under 100 nM. Also, the half-life at 1 μM was over 25 min in data set [1] and under 25 min in data set [4]. Besides, the solubility at 24 h in data set [3] (setting [5]) and in data set [3] (setting [6]) was under 10 µM each time.
Take `CCn1cc(C(F)(F)F)nc1-c1ccc(NC2CCCn3nc(-c4c(OC)ncnc4C4CC4)cc32)cc1` (stereo not drawn) [Example 240, 2-(4-cyclopropyl-6-methoxypyrimidin-5-yl)-N-(4-(1-ethyl-4-(trifluoromethyl)-1H-imidazol-2-yl)phenyl)-4,5,6,7-tetrahydropyrazolo[1,5-a]pyridin-4-amine]: the IC50 was under 100 nM at USP1/UAF1 enzyme and under 100 nM in data set [2] (Homo sapiens, ES-2). Moreover, the half-life at 1 μM in data set [1] and in data set [4] was over 25 min throughout. Further, the solubility at 24 h in data set [3] (setting [5]) is at least 10 µM; in data set [3] (setting [6]) it was under 10 µM.
Regarding `CCn1cc(C(F)(F)F)nc1-c1ccc(NC2CCCn3nc(-c4c(Cl)cnn4C(C)C)cc32)cc1F` (stereo not drawn) [Example 241, 2-(4-chloro-1-isopropyl-1H-pyrazol-5-yl)-N-(4-(1-ethyl-4-(trifluoromethyl)-1H-imidazol-2-yl)-3-fluorophenyl)-4,5,6,7-tetrahydropyrazolo[1,5-a]pyridin-4-amine], the IC50 is under 100 nM on USP1/UAF1 enzyme and 100 to 500 nM in data set [2] (Homo sapiens, ES-2). The half-life at 1 μM in data set [1] and in data set [4] was over 25 min in each case. Besides, the solubility at 24 h in data set [3] (setting [5]) and in data set [3] (setting [6]) was under 10 µM in each case.
As for `Cc1cc(C(F)(F)F)nn1-c1ccc(NC2CCCn3nc(-c4c(Cl)cnn4C(C)C)cc32)cc1` (stereo not drawn) [Example 244, 2-(4-chloro-1-isopropyl-1H-pyrazol-5-yl)-N-(4-(5-methyl-3-(trifluoromethyl)-1H-pyrazol-1-yl)phenyl)-4,5,6,7-tetrahydropyrazolo[1,5-a]pyridin-4-amine], the IC50 on USP1/UAF1 enzyme is under 100 nM; in data set [2] (Homo sapiens, ES-2), under 100 nM. In addition, the half-life at 1 μM in data set [1] and in data set [4] was over 25 min throughout. The solubility at 24 h in data set [3] (setting [5]) and in data set [3] (setting [6]) was under 10 µM throughout.
With `CCn1cc(C(F)(F)F)nc1-c1ccc(NC2CCCn3nc(-c4c(Cl)cnn4C(C)C)cc32)cn1` (stereo not drawn) [Example 245, 2-(4-chloro-1-isopropyl-1H-pyrazol-5-yl)-N-(6-(1-ethyl-4-(trifluoromethyl)-1H-imidazol-2-yl)pyridin-3-yl)-4,5,6,7-tetrahydropyrazolo[1,5-a]pyridin-4-amine], the IC50 on USP1/UAF1 enzyme is under 100 nM; in data set [2] (Homo sapiens, ES-2), 100 to 500 nM. The half-life at 1 μM in data set [1] and in data set [4] was over 25 min in each case. For the same compound, the solubility at 24 h in data set [3] (setting [5]) and in data set [3] (setting [6]) was under 10 µM throughout.
Turning to `CCn1cc(C(F)(F)F)nc1-c1ccc(NC2CCCn3nc(-c4c(Cl)cnn4C(C)C)cc32)cc1OC` (stereo not drawn) [Example 246, 2-(4-chloro-1-isopropyl-1H-pyrazol-5-yl)-N-(4-(1-ethyl-4-(trifluoromethyl)-1H-imidazol-2-yl)-3-methoxyphenyl)-4,5,6,7-tetrahydropyrazolo[1,5-a]pyridin-4-amine], the IC50 was under 100 nM at USP1/UAF1 enzyme and 100 to 500 nM in data set [2] (Homo sapiens, ES-2). Also, the half-life at 1 μM in data set [1] and in data set [4] was over 25 min throughout. Further, the solubility at 24 h in data set [3] (setting [5]) was at least 10 µM; in data set [3] (setting [6]), under 10 µM.
`CCn1cc(C#N)nc1-c1ccc(NC2CCCn3nc(-c4c(Cl)cnn4C(C)C)cc32)cc1` (stereo not drawn) [Example 247, 2-(4-((2-(4-chloro-1-isopropyl-1H-pyrazol-5-yl)-4,5,6,7-tetrahydropyrazolo[1,5-a]pyridin-4-yl)amino)phenyl)-1-ethyl-1H-imidazole-4-carbonitrile]: the IC50 is under 100 nM on USP1/UAF1 enzyme and 100 to 500 nM in data set [2] (Homo sapiens, ES-2). In addition, the half-life at 1 μM in data set [1] and in data set [4] was under 25 min in each case. Moreover, the solubility at 24 h in data set [3] (setting [5]) and in data set [3] (setting [6]) was under 10 µM each time.
Turning to `COc1ncnc(C2CC2)c1-c1cc2n(n1)CCCC2Nc1ccc(-c2nc(C(F)(F)F)cn2C(C)CF)cc1` (stereo not drawn) [Example 248, 2-(4-cyclopropyl-6-methoxypyrimidin-5-yl)-N-(4-(1-(1-fluoropropan-2-yl)-4-(trifluoromethyl)-1H-imidazol-2-yl)phenyl)-4,5,6,7-tetrahydropyrazolo[1,5-a]pyridin-4-amine], the IC50 is under 100 nM on USP1/UAF1 enzyme and under 100 nM in data set [2] (Homo sapiens, ES-2). The half-life at 1 μM in data set [1] and in data set [4] was over 25 min throughout. In addition, the solubility at 24 h in data set [3] (setting [5]) and in data set [3] (setting [6]) was at least 10 µM each time.

A word on the IC50: it is the concentration that gives 50% inhibition. As usually defined, the half-life is the time needed for the level to fall by half in the phase considered. For orientation: solubility means the concentration that dissolves in the medium under given conditions.

Values taken from patent US20230219965A1 (KSQ Therapeutics, Inc., priority 2020, published 2023).
